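Following 48 hours of exposure in 96-well plates, responses at five concentrations were used to interpolate endpoints linearly. At the GI50, growth is halved. Definition used: TGI = concentration required for complete inhibition of growth.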

Holding throughout (assay): growth of human tumour cells (NCI), 48 h
In assay [1] the test system is HOP-62 NSCLC.
Assay [2] deals with HT29 colon.
For assay [3], the system named is MDA-MB-231 breast.
Assay [4] relates to UO-31 renal.
Assay [5] has as its system HCC-2998 colon.
Assay [6] deals with SNB-75 CNS.
Assay [7] has as its system T-47D breast.
The test system of assay [8] is LOX IMVI melanoma.
The subject of assay [9] is CCRF-CEM leukemia.
The subject of assay [10] is NCI-H23 lung.

Regarding `O=C(/C(=C/c1ccc([N+](=O)[O-])cc1)SCc1ccc(Cl)cc1)c1ccc(F)cc1`, the GI50 was 13.1 µM in [1]; 2 µM in assay [2]; 2.14 µM in assay [3]; 1.96 µM in assay [4]; 2.39 µM in assay [5]; 16.1 µM in assay [6]. Besides, the GI50 was 4.32 µM in assay [7], 1.63 µM in [8], 1.97 µM in [9] and 3.92 µM in assay [10]. For the same compound, the TGI in assay [1] came to 35.4 µM; in [2], 4.12 µM; in assay [3] it was 5.98 µM; in [4], 13.6 µM; in assay [5], 5.41 µM; in assay [6] it was 65.6 µM. Moreover, the TGI in assay [7] was 19.3 µM; in [8] it was 3.1 µM; in [9], over 100 µM; in [10] it was 21.9 µM.

Consider `Cn1cc(C2=C(c3c4n(c5ccccc35)CCC(CN)C4)C(=O)NC2=O)c2ccccc21` (centres undefined), for which the GI50 in assay [1] is 3.12 µM; in assay [2], 2.67 µM; in [3], 2.53 µM; in assay [4], 3.25 µM; in [5], 3.49 µM; in assay [6], 0.594 µM. Moreover, the GI50 was 3.17 µM in [7], 3.83 µM in [8], 2.43 µM in assay [9] and 3.6 µM in assay [10]. Also, the TGI in assay [1] was found to be 6.62 µM; in assay [2] it was 5.95 µM; in assay [3] it was 6.05 µM; in assay [4], 6.58 µM; in assay [5] it was 7.14 µM; in assay [6], 4.05 µM. In addition, the TGI came out at 7.49 µM in assay [7], 7.53 µM in assay [8], 7.23 µM in [9] and 7.74 µM in assay [10].

As to `COc1cc2ncnc(Nc3cccc(Cl)c3F)c2cc1OC(=O)N1CCN(C)C[C@H]1C`, the GI50 in assay [1] is over 35.7 µM; in assay [2], over 38.4 µM; in assay [3] it was 25.3 µM; in [4], 6.89 µM; in assay [5] it was over 45.4 µM; in assay [6], 10.8 µM. The GI50 was 2.47 µM in assay [7], over 36.5 µM in assay [8], over 55.9 µM in assay [9] and over 47.5 µM in assay [10]. The TGI in assay [1] was over 66.3 µM; in assay [2], over 64.9 µM; in [3] it was over 59.5 µM; in assay [4] it was over 50.2 µM; in assay [5], over 70 µM; in [6] it was over 50.1 µM. The TGI in assay [7] was over 45.5 µM; in assay [8], over 53.8 µM; in assay [9], over 100 µM; in [10], 97.3 µM.

For the compound `COc1cc(C(=O)N2CCN(c3ccccc3)CC2)c2ccccc2n1`, the GI50 in assay [1] was 0.119 µM; in assay [2] it was 0.041 µM; in assay [3], 0.301 µM; in assay [4], 0.0875 µM; in assay [5], 0.0696 µM; in assay [6] it was 0.0402 µM. The GI50 in [7] is 0.053 µM; in assay [8] it was 0.086 µM; in [9] it was 0.128 µM; in assay [10], 0.225 µM. Also, the TGI in [1] is over 100 µM; in assay [2] it was 10.3 µM; in assay [3], over 25.2 µM; in assay [4], over 83.7 µM; in assay [5], 0.486 µM; in assay [7], over 100 µM. For the same compound, the results for the TGI in [8], in assay [9] and in assay [10] were over 52 µM, over 100 µM and over 100 µM, respectively.

Turning to `COc1cc(/C(=C2/O[C@@H]([C@H]3COC(C)(C)O3)[C@H]3OC(C)(C)O[C@@H]23)c2ccc3ccccc3c2)cc(OC)c1OC`, the GI50 in assay [1] is 9.78 µM; in [2] it was 3.64 µM; in [3], 6.28 µM; in assay [4], 3.47 µM; in [5], 6.47 µM; in [6], 2.89 µM. Also, the GI50 is 3.45 µM in assay [7], 3.39 µM in assay [8], 48.3 µM in assay [9] and 5.43 µM in assay [10]. Moreover, the TGI is 31.4 µM in assay [1]; 16.3 µM in [2]; 69.7 µM in assay [3]; over 100 µM in assay [4]; over 100 µM in assay [5]; 7.44 µM in assay [6]. Besides, the TGI in assay [7] is 40.6 µM; in [8], 19.8 µM; in assay [9], over 100 µM; in assay [10] it was over 100 µM.

With `CC1(C)CC[C@]2(C(=O)O)CC[C@]3(C)C(=CC[C@@H]4[C@@]5(C)C[C@H](O)[C@H](O)[C@@](C)(C(=O)O)[C@@H]5CC[C@]43C)[C@@H]2C1`, the TGI in [1], in assay [2], in assay [3], in [4], in [5] and in assay [6] was over 100 µM in each case. Also, the TGI in assay [7], in assay [8], in [9] and in assay [10] was over 100 µM throughout.

For the compound `C=C1C(=O)O[C@H]2C[C@@H]1CC/C(C)=C/CC/C(C)=C/CC[C@@]2(C)O`, the GI50 was over 100 µM in assay [1]; 34.6 µM in assay [2]; 25.7 µM in assay [3]; 30.9 µM in assay [4]; 24.1 µM in assay [5]; 70.8 µM in assay [6]. The GI50 in assay [7] was over 100 µM; in assay [8] it was 17.4 µM; in assay [9] it was 16.5 µM; in assay [10], 7.51 µM. The TGI in assay [1] was over 100 µM; in [2], over 100 µM; in assay [3] it was 53.7 µM; in [4], 87.4 µM; in assay [5] it was 74.9 µM; in assay [6], over 100 µM. Besides, the TGI in assay [7] was over 100 µM; in assay [8], 31.5 µM; in assay [9], 38.9 µM; in [10] it was over 100 µM.

With `CCNC(=O)Nc1ccc(Oc2ccnc3ccc4c(ccn4C)c23)cc1`, the GI50 in assay [1] was 46.9 µM; in [2], 44.6 µM; in assay [3], 26.3 µM; in assay [4] it was 92.3 µM; in assay [5], 28.2 µM; in [6], 59.9 µM. Also, the GI50 is 23.2 µM in [7], 20.4 µM in assay [8], 18.9 µM in [9] and over 100 µM in assay [10]. In addition, the TGI in assay [1] is over 100 µM; in assay [2], over 100 µM; in [3] it was 62.8 µM; in [4], over 100 µM; in [5], 63.9 µM; in assay [6], over 100 µM. Moreover, the TGI was 62.1 µM in [7], 40.7 µM in assay [8], over 100 µM in assay [9] and over 100 µM in assay [10].
